Entries after “also recorded” stand apart in the source; their conditions may differ. Starred links: 1 amine or outer side, 2 acyl side, 3 side chain; linkers in the order of their positions; H or OH if unused. Residues, ends and D or L forms follow the SMILES beside them. *: point of attachment. AFC = O=c1cc(C(F)(F)F)c2ccc(N*)cc2o1; Morpholide = C1CN(*)CCO1; Cbz = O=C(OCc1ccccc1)*; CO = O=C([*:1])[*:2]; CH2F = FC*
Experiments:
[1] = tested on: purified Taenia solium cysteine protease; experiment: Screen of AFC-linked synthetic substrates for cleavage (Step II); format: biochemical; conditions: pH 4.9, 18 h, 37° C
Procedure: In this step, the most efficacious substrate for detection of the cysteine protease (high Kcat substrate) was determined in vitro along with those substrates which were not well cleaved (low kcat substrates). From this point forth, the following conditions refer to all assays: “assay buffer” refers to 0.4 M Citrate, pH 4.9 (the pH optima of the protease). Incubation time was 18 hours at 37° C. These conditions were determined by our preliminary data to be best for kinetic evaluation of the protease. […] The experiments were conducted in […] Borosilicate mini-culture tubes (Fisher Scientific), and a fluorometer (Turner) was employed for detection of AFC cleavage.
Approximately 1 ug (or a proteolytically detectable amount) of the purified target cysteine protease was incubated individually, with 1 μg of each of the available substrates in 500 μL of assay buffer. During this setup, the substrate was pre-incubated in the assay buffer for a short period of time (20 minutes) in order to reach an equilibrated status before the addition of the protease. Cleavage assessments were based upon the property of the protease to cleave synthetic peptide substrates linked at the C-terminus to 7-Amino-4-Trifluoromethyl Coumarin (AFC) as previously described. AFC linked tripeptides, dipeptides, and monopeptides, (with a variety of permutations at P3-P1) were available from Enzyme Systems Products (Livermore, CA), and were used as the source of the subset. Following incubation of enzyme preparations overnight (18 h, 37 ° C.) with peptide in assay buffer (Citrate, pH 4.9, supplemented with 0.01 M cysteine), free AFC concentrations were measured fluorometrically (excitation […]). The proteolytic cleavage released the AFC group, which was measurable as a free molecule by a standard fluorometer and converted into molar quantities, based upon a previously established standard curve. The simplicity of AFC detection by the fluorometer was a key factor which quickened and simplified the procedures.
In the assay, 1 ug of the purified Taenia cysteine protease was added to a saturating amount of Z-Phe-Arg-AFC (4×10^−5 M) in assay buffer. The experiment was conducted in triplicate and repeated at least 5 times until we were certain that variability in AFC cleavage was not statistically significant.
Vmax was calculated for the cleavage of substrates by the purified target protease and Vmax was calculated for substrates cleaved by the crude mix protease using conventional kinetic modeling calculations already described in the art.

Taenia crassiceps cysts [2] = experiment: Short-term prophylactic protection of BALB/c mice from cysticercosis infection; format: in vivo; conditions: pre-injected two days, 10 T. crassiceps cysts/mouse, dosed daily four weeks, intraperitoneal; vs untreated controls
Procedure: FIG. 8. […] Each treated mouse was pre-injected intraperitoneally with inhibitor for two days. During treatment phase, each treated mouse received 1.48×10^−2 μg/μl of N2 daily for three weeks and every other day during the last week. Injections were carried out in 150 μl of dimethyl sulfoxide for each mouse. Both treated groups and positive controls were challenged intraperitoneally with 10 Taenia crassiceps cysts in 200 μl 0.15M PBS at the time of initial infection. After one month of infection, both groups were euthanized and cysts removed by washing with sterile 0.15M PBS. A minimum of two attached cysts were scored as multilobed (ML). […] (B) Graphically represents the effect of protease inhibitor treatment of BALB/c mice challenged with Taenia crassiceps cysts over a long-term period. Mice were divided into treated and untreated groups (5 mice/group).Each mouse in the treated group was pre-injected intraperitoneally with inhibitor for two days. […] Cysts were then counted by visual inspection. […]
Based upon the premise that the cyst wall cysteine protease may serve a critical finction to the life cycle of the Taenia cyst, we tested our most efficacious inhibitors, LLL-FMK and LLY-FMK (K-Pyr was used as a control), for their abilities to protect mice from cysticercosis infection. […] After one month, the mice were euthanized and the cysts counted. […]

T crassiceps cysts = experiment: Therapeutic study in BALB/c mice infected with T crassiceps cysts; format: in vivo, Taenia crassiceps; conditions: inhibitor treatment began two weeks after infection
Description: (§1) Mice in all groups survived without noticeable side effects (e.g., coat condition, tail dragging or paresis, etc).

[3] = Observation of side effects in treated mice; format: in vivo; conditions: BALB/c mice; for side effects in mice, long-term study: 30 days treatment, 5 months follow-up
Procedure: FIG. 8. […] Each treated mouse was pre-injected intraperitoneally with inhibitor for two days. During treatment phase, each treated mouse received 1.48×10^−2 μg/μl of N2 daily for three weeks and every other day during the last week. Injections were carried out in 150 μl of dimethyl sulfoxide for each mouse. Both treated groups and positive controls were challenged intraperitoneally with 10 Taenia crassiceps cysts in 200 μl 0.15M PBS at the time of initial infection. After one month of infection, both groups were euthanized and cysts removed by washing with sterile 0.15M PBS. A minimum of two attached cysts were scored as multilobed (ML). […] (B) Graphically represents the effect of protease inhibitor treatment of BALB/c mice challenged with Taenia crassiceps cysts over a long-term period. Mice were divided into treated and untreated groups (5 mice/group).Each mouse in the treated group was pre-injected intraperitoneally with inhibitor for two days. Subsequently, all groups were challenged with 10 T. crassiceps cysts in 200 μl of 0.15M PBS. Treatment with inhibitor or placebo (0.15M PBS) was carried out every day for 30 days post-challenge. Cysts were left alone (untreated) for 5 months, and then euthanized. Cysts were then counted by visual inspection. Percent protection is based on the reduction of the total cyst number in comparison to control mice, which never received any treatment.
as §1
Long-term studies were also conducted to determine over how long a period these inhibitors would maintain a protective effect. In a representative experiment shown here, mice were divided into treated and untreated groups (5 mice/group). Each mouse in the treated group was pre-injected intraperitoneally with inhibitor for two days. Subsequently, all groups were challenged with 10 T. crassiceps cysts in 200 μl 0.1 5M PBS. Treatment with inhibitor or placebo (0. 15M PBS) was carried out every day for 30 days post- challenge. […] Cysts were then counted by visual inspection. […]

Taenia crassiceps cysts [4] = experiment: Scanning electron microscopy of surfaces of cysts removed from treated mice; format: in vivo
Description: FIG. 9. Scanning electron microscopy of the surface of cysts removed from untreated mice versus cysts removed from treated mice. Magnifications are identical for both slides in each panel. panel A (4000×). […] No immune cells were seen on cysts removed from untreated mice. Panel B (25,000×). […] Microtriches in untreated cysts can be seen to be visibly longer. Visible anchors were also noted for the untreated cysts group, whereas these anchors were not observed in microtriches from treated cysts.
For example, we hypothesized that the cysteine protease was a key parasitic molecule to allow the cyst to evade the host immune response, by cleaving host antibodies. By inhibiting the Taenia cysteine protease with Z-LLY-FMK, we hypothesized that host immunoglobulin could now bind the parasites, and initiate immunological responses (e.g., complement via IgG2a) which would cause damage to the cyst wall. […] We identified macrophages, neutrophils, fibroblasts, and collagenous deposits on the cyst surfaces from treated mice, in comparison to their absence on cysts from untreated mice. General surface atrophy was also apparent. […] Breaks in the integrity of the cyst surface were also noted for the cysts removed from treated mice. […] Cysts removed from untreated mice were characterized by no immune cells, intact and longer microtriches, and homogeneity of the cyst surface.

SMILES	cleavage as substrate (Vmax) [1]	% Prophylactic protection of BALB/c mice (Taenia crassiceps cysts [2])	% Therapeutic protection of BALB/c mice (T crassiceps cysts)	side effects in mice, long-term study [3]	Immune cells observed by SEM on cyst surfaces (Taenia crassiceps cysts [4])	side effects / inhibitor toxicity in mice, short-term studies ([3]; one month, visual inspection)
CC(C)C[C@H](NC(=O)N1CCOCC1)C(=O)N[C@@H](Cc1ccc(O)cc1)C(=O)Nc1ccc2c(C(F)(F)F)cc(=O)oc2c1 [Mu-LY-AFC, Mu-Leu-Tyr-AFC] ({Morpholide-CO}-Leu-Tyr-{AFC})	noncleavable	–	–	–	–	–
CC(C)C[C@H](NC(=O)[C@H](CC(C)C)NC(=O)[C@H](CC(C)C)NC(=O)OCc1ccccc1)C(=O)CF [Z-LLL-FMK, Z-Leu-Leu-Leu-fluoromethylketone] (Cbz-Leu-Leu-Leu-CH2F)	–	100%	60%	no side effects	–	–
CC(C)C[C@H](NC(=O)OCc1ccccc1)C(=O)N[C@@H](CC(C)C)C(=O)N[C@@H](Cc1ccc(O)cc1)C(=O)CF [Z-LLY-FMK, Z-Leu-Leu-Tyr-FMK] (Cbz-Leu-Leu-Tyr-CH2F)	–	–	–	no side effects	vigorous host immune response; also recorded: presence of adherent immune cells; also recorded: Intense	no mice showed effects of inhibitor toxicity
